According to paper PMC10744608, “Simplified Synthesis of Renieramycin T Derivatives to Target Cancer Stem Cells via β-Catenin Proteasomal Degradation in Human Lung Cancer” (Marine Drugs, 2023):

How the values were obtained:
Assay in all cases: Immunoprecipitation of β-catenin–ubiquitin complex
Format in all cases: cell-based, human
A549 cells = conditions: A549, 50 nM, compared to cells treated with RT
Method: (§1) The DH_32-treated A549, H23, and H292 cells were collected using cold PBS and incubated on ice in a lysis buffer. This buffer consisted of 50 mM 4-(2-hydroxyethyl)-1-piperazineethanesulfonic acid at pH 7.5, 150 mM NaCl, 5 mM EDTA, 1% Triton X-100, 1 mM phenylmethylsulfonyl fluoride, and 2 μg/mL pepstatin A (catalog no: 9803, Cell Signaling), along with complete protease inhibitor cocktail tablets from the EASYpack (Roche, catalog no: 04693116001). The incubation took place for 40 min on ice, followed by centrifugation at 12,000× g at 4 °C for 15 min.
(§2) Subsequently, immunoprecipitation was carried out using the Dynabeads™ Protein G Immunoprecipitation Kit from Thermo Fisher Scientific Inc. (Waltham, MA, USA). The magnetic beads were prepared and added to 100 μL of Ab binding and washing buffer that contained β-catenin (2 μL) for 15 min on rotation at room temperature. The complex of magnetic beads and antibodies was re-suspended in a protein lysis buffer and left to incubate at 4 °C overnight, facilitating the binding of the β-catenin antigen with the magnetic bead–antibody complex. The magnetic bead–Ab–Ag complex was washed three times using 200 μL of washing buffer. The magnetic bead–antibody–antigen complex was resuspended in the lysis buffer (30 μL), and the 6x sample buffer (5 μL) was denatured by heating at 95 °C for 5 min. The antigen–antibody complex was loaded onto a 12% sodium dodecyl sulfate polyacrylamide gel electrophoresis (SDS-PAGE). Following gel separation, the proteins were transferred onto a nitrocellulose membrane with a pore size of 0.45 μm. After transfer, the membrane was placed in a mixture containing 5% nonfat dry milk in TBST (composed of 25 mm Tris-HCl, pH 7.4, 125 mm NaCl, and 0.05% Tween 20) for a duration of 1 h 30 min. Following this, the proteins were exposed to primary antibodies (Cell Signaling), specifically ubiquitin mouse mAb (cat no: 14049), and left to incubate overnight at 4 °C. […] Protein intensity was analyzed by using ImageJ software (Image J 1.52a, Rasband, W., National Institutes of Health, USA). […]

H23 cells = conditions: H23, 50 nM, compared to cells treated with RT
Method: as §1, §2

H292 cells = conditions: H292, 50 nM, compared to cells treated with RT
Method: as §1, §2

## COC1=C(C)C(=O)C2=C(C1=O)[C@@H]1CN(Cc3ccc4ccccc4c3)[C@@H](C#N)[C@H](C2)N1C [DH_32, (1R,4R,5S)-9-methoxy-8,11-dimethyl-3-(naphthalen-2-ylmethyl)-7,10-dioxo-1,2,3,4,5,6,7,10-octahydro-1,5-epiminobenzo[d]azocine-4-carbonitrile]
A549 cells
  increase in level of β-catenin–ubiquitin complex: 2.5 fold
H23 cells
  increase in level of β-catenin–ubiquitin complex: two-fold increase
H292 cells
  increase in level of β-catenin–ubiquitin complex: 3.5 fold
